Six molecules from patent US20090143430A1, “ERYTHROPOIETIN PRODUCTION ACCELERATOR” (Kowa Co., Ltd., priority 2002, published 2009) can be followed below.

Data set [1] deals with Hep3B cells. Briefly: EPO produced in Hep3B cell culture medium under 1% oxygen, ELISA kit (Test Example 2). Type of data set: cell-based. To be noted: 24 hrs, 100 nM, control 8.1. The method, then: Hep3B cells were inoculated by 1×10^6 on each of 6 cm dishes, and then cultured for 24 hrs. As a culture medium, 3 mL of DMEM/10% FCS was used. The culture medium was exchanged and the compounds of each of Preparation Examples 13, 23, 29, 36, and 114 were added such that the content thereof was 100 nM final concentration, and they were transferred into the atmosphere of 1% oxygen at 37° C. for further 24 hrs culture thereof. The supernatant of the culture was recovered, and the amount of EPO was measured by ELISA kit (product of Roche Diagnostics) (two cases in each group). Further, cell extract was prepared and protein amount was determined, and corrected it as production amount per protein amount. As a control, groups not containing the compounds are prepared.
In general terms: An ELISA detects its analyte on a solid surface through an enzyme-linked reagent.

In data set [2] the test system is human EPO promoter. Briefly: EPO promoter activity, luciferase reporter in Hep3B cells, 1% O2 vs 21% O2 (Test Example 1). Type of data set: cell-based. To be noted: 24 hrs. The method, then: (§1) Hep3B cells producing EPO under hypoxic condition were used. The cells were inoculated onto a 100 mm petri dish by 1.5-3.0×10^6. As a culture medium, 10 ml of Dulbecco's Modified Eagles' Medium (DMEM)/10% Fetal Calf Serum (FCS) was used. The next day, the culture medium was exchanged, and compound of Preparation Example 13 (final concentration: 100 nM) was added, then cells were cultured under 1% O2 at 37° C. for 24 hrs. Groups were prepared in which IL-1β (final concentration: 15 U/ml) or TNF-α (final concentration: 220 U/ml), of which EPO production suppressing action is known (Faquin W C, Schneider T J, Goldgerg M A, Blood, 79(8): 1987-94 (1992)), were used solely or in combination with compound of Preparation Example 13 (final concentration: 100 nM). […] The amount of EPO in the supernatant obtained after the culture was measured by ELISA (each group; n=3). The enhancer site and promoter site (144 bp) of a human EPO gene were linked to luciferase reporter vector, which was used for measuring the EPO promoter activity. The EPO promoter activity was evaluated as follows.
1×10^6 Hep3B cells were inoculated on 30 mm petri dish (4 mL:DMEM/10% FCS), and a reporter gene (2 μg) as well as P-galactosidase gene (1 μg) as an internal standard were transfected into the cells by the lipofectin method. The next day, the culture medium was exchanged and the groups, whose group-composition was similar to the above (control group (containing no agents), IL-1β group (final concentration: 15 U/ml), TNF-α (final concentration: 220 U/ml), compound of Preparation Example 13 (final concentration: 100 nM), or a combination of compound of Preparation Example 13 and IL-1β or TNF-α) were cultured under 1% O2 or 21% O2 (as a control) at 37° C. for 24 hrs (for each group; n=4). The extract of the cells after cultured were prepared, then luciferase activity and β galactosidase activity were measured. The EPO promoter activity was expressed by the formula: […]
(§2) The data obtained were analyzed and evaluated by Student's t-test.
In general terms: A reporter such as luciferase makes a cellular process visible.

Data set [3] has as its system Hep3B cells. Briefly: EPO protein produced by Hep3B cells under hypoxia (1% O2), ELISA (Test Example 1). Type of data set: cell-based. The following applies: 1% O2, 24 hrs. On the procedure:
as §1, §2

The subject of data set [4] is anemia model mice. Briefly: In vivo mice anemia model with IL-1β or TNF-α suppressed EPO production (Test Example 3). Set-up: species or system mouse. On the procedure: ICR mice (available from CLEA Japan Inc.) were made to be anemia by taking blood samples by 0.3 mL at a time from the orbital vein of the mouse by use of a heparin-coated microcapillary by 4 times in every 12 hours from 2 days before administering the agents. Further, 1.67×10^4 unit/day of mouse IL-1β (Roche Diagnostics) or 3.33×10^5 unit/day of mouse TNF-α (Roche Diagnostics) was injected intraperitoneally on day 0-3 (the first day of administration of agents was defined as […]) to induce a suppressed condition of EPO production. To these mice, Preparation Example 13 compound dissolved in 50% polyethylene glycol solution was administered orally by 1 or 3 mg/kg/day on day 0-5. As a control, 50% polyethylene glycol solution was administered (each group; n=7-15). On day 3 and 6, 0.3 mL of blood was collected, and hematocrit (Ht) value, hemoglobin (Hb) concentration (Celltac a: NIHON KOHDEN), EPO amount (ELISA kit: Roche Diagnostics) were measured. Also, the blood was stained by methylene-blue, and smears were prepared to calculate Reticulocytes value.

Where a name gives a salt, the structure may show the parent alone.

Take `COc1cc(-c2cc(CN3CCC(N(C)Cc4ccnc(-c5cc(OC)c(OC)c(OC)c5)c4)CC3)ccn2)cc(OC)c1OC` [Preparation Example 36, 4-[N-methyl-N-[[2-(3,4,5-trimethoxyphenyl)pyridin-4-yl]methyl]amino]-1-[[2-(3,4,5-trimethoxyphenyl)pyridin-4-yl]methyl]piperidine Tetrahydrochloride]: the “Increasing action of EPO production (amount of EPO per protein amount)” value in data set [1] is reported as 10.0 mU/mg Protein.

`COc1cc(-c2cncc(CN(c3ccc(SC)cc3)C3CCN(Cc4ccnc(-c5cc(OC)c(OC)c(OC)c5)c4)CC3)c2)cc(OC)c1OC` [Preparation Example 114]: the “Increasing action of EPO production (amount of EPO per protein amount)” value in data set [1] came out at 14.9 mU/mg Protein.

For the molecule `COc1cc(-c2cc(CN3CCC(N(Cc4ccnc(-c5cc(OC)c(OC)c(OC)c5)c4)c4ccc5c(c4)OCO5)CC3)ccn2)cc(OC)c1OC` [Preparation Example 29, 4-[N-(3,4-methylenedioxyphenyl)-N-[[2-(3,4,5-trimethoxyphenyl)pyridin-4-yl]methyl]amino]-1-[[2-(3,4,5-trimethoxyphenyl)pyridin-4-yl]methyl]piperidine Trihydrochloride], in data set [1], the “Increasing action of EPO production (amount of EPO per protein amount)” value is 10.5 mU/mg Protein.

`COc1cc(OC)cc(N(Cc2ccnc(-c3cc(OC)c(OC)c(OC)c3)c2)C2CCN(Cc3ccnc(-c4cc(OC)c(OC)c(OC)c4)c3)CC2)c1` [Preparation Example 23, 4-[N-(3,5-dimethoxyphenyl)-N-[[2-(3,4,5-trimethoxyphenyl)pyridin-4-yl]methyl]amino]-1-[[2-(3,4,5-trimethoxyphenyl)pyridin-4-yl]methyl]piperidine Trihydrochloride]: the “Increasing action of EPO production (amount of EPO per protein amount)” value in data set [1] is 13.9 mU/mg Protein.

In the case of TNF-α, the “human EPO promoter activity (HI)” value in data set [2] (TNF-α 220 U/ml alone) was determined as 20.7±4.1 fold. In data set [3] (TNF-α 220 U/ml alone), the “amount of the produced EPO protein” value came to 180.8±24.6 mU/mg protein. Besides, the Hb amount in data set [4] (day 3, TNF-α i.p. alone (control 13.8±0.6)) was found to be 12.6 ± 0.7 g/dL; in data set [4] (day 6, TNF-α i.p. alone (control 14.8±0.8)) it was 13.1 ± 0.5 g/dL. The “EPO amount in serum” value was 2.7±4.6 mU/mL in data set [4] (day 3, TNF-α i.p. alone (control 23.7±31.0)) and 3.3±6.0 mU/mL in data set [4] (day 6, TNF-α i.p. alone (control 24.8±33.8)). Moreover, the reticulocyte value in data set [4] (day 3, TNF-α i.p. alone (control 32.1±4.4)) came to 14.2±3.4%; in data set [4] (day 6, TNF-α i.p. alone (control 16.3±3.1)) it was 9.4±3.3%. The Ht value in data set [4] (day 3, TNF-α i.p. alone (control 42.2±3.6)) worked out at 38.3±2.5%; in data set [4] (day 6, TNF-α i.p. alone (control 46.4±2.9)), 41.6±1.8%.

B1: IL-1β: "IL-1β (final concentration: 15 U/ml) ... of which EPO production suppressing action is known"; "mouse IL-1β (Roche Diagnostics)" in vivo (protein, UniProt P10749 118-269, looked up)
Interleukin-1 beta: VPIRQLHYRLRDEQQKSLVLSDPYELKALHLNGQNINQQVIFSMSFVQGEPSNDKIPVALGLKGKNLYLSCVMKDGTPTLQLESVDPKQYPKKKMEKRFVFNKIEVKSKVEFESAEFPNWYISTSQAEHKPVFLGNNSGQDIIDFTMESVSS
B1: the “human EPO promoter activity (HI)” value in data set [2] (IL-1β 15 U/ml alone) turned out to be 19.9±6.5 fold. The “amount of the produced EPO protein” value in data set [3] (IL-1β 15 U/ml alone) is reported as 233.3±19.4 mU/mg protein. Also, the Hb amount in data set [4] (day 3, IL-1β i.p. alone (control 13.8±0.6)) worked out at 12.3 ± 0.8 g/dL; in data set [4] (day 6, IL-1β i.p. alone (control 14.8±0.8)), 13.5 ± 0.5 g/dL. Further, the “EPO amount in serum” value was determined as 5.9±14.3 mU/mL in data set [4] (day 3, IL-1β i.p. alone (control 23.7±31.0)) and 2.9±5.0 mU/mL in data set [4] (day 6, IL-1β i.p. alone (control 24.8±33.8)). Moreover, the reticulocyte value in data set [4] (day 3, IL-1β i.p. alone (control 32.1±4.4)) is recorded as 15.4±3.5%; in data set [4] (day 6, IL-1β i.p. alone (control 16.3±3.1)), 12.2±2.0%. Besides, the Ht value is recorded as 36.0±3.0% in data set [4] (day 3, IL-1β i.p. alone (control 42.2±3.6)) and 40.9±1.5% in data set [4] (day 6, IL-1β i.p. alone (control 46.4±2.9)).
